According to patent US12152012B2, “BRAG2 inhibitors and applications thereof” (CENTRE NATIONAL DE LA RECHERCHE SCIENTIFIQUE, priority 2018, dated 2024):

Experiments:
[1] = molecular target: T1, BRAG2 (BRAG2^Sec7PH) (Homo sapiens, UniProt Q6DN90); assay: Nucleotide exchange kinetics on liposomes, activation of myristoylated Arf1; assay type: biochemical
T1 construct: human BRAG2^Sec7 (390-594) and BRAG2^Sec7PH (390-811); made in house
Description: The effect of Bragsin1 on the GEF efficiency of representative human ArfGEFs was evaluated by fluorescence kinetics using highly purified recombinant Arf GTPases and ArfGEFs. In a first series of assays, the Sec7 domains of BIG1, a Golgi ArfGEF, and of ARNO, EFA6a and BRAG2, which function at the plasma membrane, were used. When tested in solution, Bragsin1 had no effect on the activation of Arf1 by any of these Sec7 domains (FIGS. 2a and 14). Separately, we reconstituted the activation of myristoylated Arf1 by the same ArfGEFs on liposomes using ArfGEF constructs that contain a membrane-binding domain (DCB-HUS domain for BIG1, PH domains for the other GEFs). […] BRAG2 activates several Arf isoforms, including the plasma membrane-located Arf6 isoform. […] Bragsin1 and Bragsin2 have the same IC50 towards BRAG2 ([…]) according to dose-response analysis, confirming that Bragsin1 and Bragsin2 can be used interchangeably (FIG. 2d). The specific inhibition of BRAG2 by Bragsin in vitro predicts that BRAG2 silencing by siRNA should yield the same phenotype as treatment by the small molecule. Silencing of BRAG2 induced the redistribution of TGN46 into tubular or punctate structures, which phenocopied the effects induced by Bragsin (FIGS. 2e, 17 and 18). […] Silencing of ARNO, which is located at the plasma membrane, had no effect on TGN46 distribution. Overexpression of BRAG2-mCherry rescued the dispersion of the TGN46 structure induced by Bragsin, which is consistent with the silencing experiments (FIG. 2f). Bragsin is a specific inhibitor of the ArfGEF BRAG2 in vitro and in cells according to these experiments. These oexperiments identify a mechanism of inhibition that requires the membrane to manifests itself.
Bovine Δ17Arf1 and human Δ13Arf6, full-length myristoylated Arf1 and Arf6, human BRAG2^Sec7 (390-594) and BRAG2^Sec7PH (390-811), human EFA6^Sec7 (527-727) and EFA6^Sec7PHCt (527-1024), ARNO^Sec7 (50-256), BIG1^Sec7 (691-889), BIG1^DcbHusSec7 (2-888) and ARNO^Sec7PH (50-399) were expressed and purified as in (Benabdi, S. et al. Family-wide Analysis of the Inhibition of Arf Guanine Nucleotide Exchange Factors with Small Molecules: Evidence of Unique Inhibitory Profiles. Biochemistry 56, 5125-5133 (2017)) and references therein. BRAG2^Sec7PH mutants were purified as the wild type protein. Purification of human full-length Rac1 carrying a 6xHis tag in C-terminus and human TRIO^DH1PH1 (1232-1550) was described in (Peurois, F. et al. Characterization of the activation of small GTPases by their GEFs on membranes using artificial membrane tethering. Biochem J 474, 1259-1272 (2017)).
Lipids (of natural origin) were from Avanti Polar Lipids, except NBD-PE from Sigma. Liposomes were prepared as described in (Aizel, K. et al. Integrated conformational and lipid-sensing regulation of endosomal ArfGEF BRAG2. PLOS Biol 11, e1001652 (2013)) and extruded at 0.2 μm. For the Arf GEF specificity studies, liposomes contained 48% phosphatidylcholine (PC), 20% phosphatidylethanolamine (PE), 30% phosphatidylserine (PS) and 2% phosphatidylinositol-4,5-bisphosphate (PIP2). For Rac activation assay, liposomes contained 43% PC, 20% PE, 10% PS, 20% cholesterol, 2% PIP2, 5% NiNTA lipids and 0.2% NBD-PE. To exclude aggregation or disruption of the liposomes, their size distribution was controlled before and after experiments by dynamic light scattering as described in (Benabdi, S. et al. Biochemistry 56, 5125-5133 (2017)). Dose-response and flotation assays were carried out with liposomes containing 37.9% PC, 20% PE, 20% PS, 2% PIP2, 20% cholesterol and 0.1% NBD-PE. Flotation assays were carried out as in 18.
Nucleotide exchange kinetics were monitored by tryptophan fluorescence with excitation/emission wavelengths of 292/340 nm using a Cary Eclipse fluorimeter (Varian) at 37° C. and under continuous stirring as described in ^50,51. […]

[2] = tested on: TGN46 (trans-Golgi network marker) in Hela cells; assay: Immunostaining and confocal microscopy of Hela cells; assay type: cell-based, human; conditions: 50 μM

T1 sequence (Q6DN90 512-933): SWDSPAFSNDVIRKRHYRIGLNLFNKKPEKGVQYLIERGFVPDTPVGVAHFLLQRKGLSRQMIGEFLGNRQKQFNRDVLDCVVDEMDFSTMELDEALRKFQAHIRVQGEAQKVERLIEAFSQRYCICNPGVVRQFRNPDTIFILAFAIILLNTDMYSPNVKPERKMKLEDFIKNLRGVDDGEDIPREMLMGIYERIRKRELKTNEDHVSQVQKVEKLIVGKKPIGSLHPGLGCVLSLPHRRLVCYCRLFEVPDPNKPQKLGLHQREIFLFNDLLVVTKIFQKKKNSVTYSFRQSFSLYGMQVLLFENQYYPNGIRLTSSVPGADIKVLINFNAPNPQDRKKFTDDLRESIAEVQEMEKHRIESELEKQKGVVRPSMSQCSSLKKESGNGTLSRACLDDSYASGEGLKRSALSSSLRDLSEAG

| SMILES | Inhibition of BRAG2 in the presence of liposomes ([1]; 50 μM compound vs DMSO, myristoylated Arf1, liposomes) | Dispersion of TGN46 marker [2] | Biological activity of hydrated derivative ([1]; derivative formed from Bragsin1 in aqueous solution) |
| --- | --- | --- | --- |
| COc1cc(OC)c2oc(C(F)(F)F)cc(=O)c2c1[N+](=O)[O-] [Bragsin3, 6,8-dimethoxy-5-nitro-2-(trifluoromethyl)-4H-chromen-4-one] | strongly inhibits | disperses | – |
| COc1ccc2oc(C(F)(F)F)cc(=O)c2c1 [Compound 3, 6-methoxy-2-(trifluoromethyl)-4H-chromen-4-one] | – | not capable to disperse | – |
| COc1ccc2oc(C(F)(F)F)cc(=O)c2c1C=O [Compound 5, 6-methoxy-4-oxo-2-(trifluoromethyl)-4H-chromene-5-carbaldehyde] | – | less effect | – |
| COc1ccc2oc(C(F)(F)F)cc(=O)c2c1C(=O)O [Compound 6, 6-methoxy-4-oxo-2-(trifluoromethyl)-4H-chromene-5-carboxylic acid] | – | not capable to disperse | – |
| Cc1ccc2c(c1[N+](=O)[O-])C(=O)CC(O)(C(F)(F)F)O2 (stereo not drawn) [Compound 13, 2-hydroxy-6-methyl-5-nitro-2-(trifluoromethyl)chroman-4-one] | – | – | biologically inactive |
